Measured values published in ChEMBL document CHEMBL1145222, “Synthesis and in vitro study of novel Mannich bases as antibacterial agents” (2005).

Tests used:
Type in all cases: functional
Escherichia coli [1] = assay: Zone of inhibition of Escherichia coli at compound concentration of 40 mg/mL
Staphylococcus aureus [2] = assay: Zone of inhibition of Staphylococcus aureus at compound concentration of 80 mg/mL
Klebsiella pneumoniae [3] = assay: Zone of inhibition of Klebsiella pneumoniae at compound concentration of 40 mg/mL
Pseudomonas aeruginosa [4] = assay: Zone of inhibition of Pseudomonas aeruginosa at compound concentration of 80 mg/mL
Klebsiella pneumoniae [5] = assay: Zone of inhibition of Klebsiella pneumoniae at compound concentration of 160 mg/mL
Pseudomonas aeruginosa [6] = assay: Zone of inhibition of Pseudomonas aeruginosa at compound concentration of 40 mg/mL
Staphylococcus aureus [7] = assay: Zone of inhibition of Staphylococcus aureus at compound concentration of 160 mg/mL
Staphylococcus aureus [8] = assay: Zone of inhibition of Staphylococcus aureus at compound concentration of 40 mg/mL
Escherichia coli [9] = assay: Zone of inhibition of Escherichia coli at compound concentration of 160 mg/mL
Bacillus subtilis [10] = assay: Zone of inhibition of Bacillus subtilis at compound concentration of 160 mg/mL
Bacillus subtilis [11] = assay: Zone of inhibition of Bacillus subtilis at compound concentration of 80 mg/mL
Bacillus subtilis [12] = assay: Zone of inhibition of Bacillus subtilis at compound concentration of 40 mg/mL
Klebsiella pneumoniae [13] = assay: Zone of inhibition of Klebsiella pneumoniae at compound concentration of 80 mg/mL
Escherichia coli [14] = assay: Zone of inhibition of Escherichia coli at compound concentration of 80 mg/mL
Pseudomonas aeruginosa [15] = assay: Zone of inhibition of Pseudomonas aeruginosa at compound concentration of 160 mg/mL
[16] = system: Salmonella enterica subsp. enterica serovar Typhi; assay: Zone of inhibition of Salmonella typhae at compound concentration of 40 mg/mL
[17] = system: Salmonella enterica subsp. enterica serovar Typhi; assay: Zone of inhibition of Salmonella typhae at compound concentration of 160 mg/mL
[18] = system: Salmonella enterica subsp. enterica serovar Typhi; assay: Zone of inhibition of Salmonella typhae at compound concentration of 80 mg/mL
Klebsiella pneumoniae [19] = assay: Zone of inhibition Klebsiella pneumoniae at compound concentration of 40 mg/mL
Klebsiella pneumoniae [20] = assay: Zone of inhibition Klebsiella pneumoniae at compound concentration of 80 mg/mL
Escherichia coli [21] = assay: Zone of inhibition Escherichia coli at compound concentration of 80 mg/mL
Klebsiella pneumoniae [22] = assay: Zone of inhibition Klebsiella pneumoniae at compound concentration of 160 mg/mL
Escherichia coli [23] = assay: Zone of inhibition Escherichia coli at compound concentration of 160 mg/mL
Escherichia coli [24] = assay: Zone of inhibition Escherichia coli at compound concentration of 40 mg/mL
Escherichia coli [25] = assay: Zone of inhibition Escherichia coli Escherichia coli at compound concentration of 80 mg/mL
Escherichia coli [26] = assay: Zone of inhibition Escherichia coli Escherichia coli at compound concentration of 160 mg/mL

Structure (SMILES) | Inhibition (Escherichia coli [1]) [mm] | Inhibition (Staphylococcus aureus [2]) [mm] | Inhibition (Klebsiella pneumoniae [3]) [mm] | Inhibition (Pseudomonas aeruginosa [4]) [mm] | Inhibition (Klebsiella pneumoniae [5]) [mm] | Inhibition (Pseudomonas aeruginosa [6]) [mm] | Inhibition (Staphylococcus aureus [7]) [mm] | Inhibition (Staphylococcus aureus [8]) [mm] | Inhibition (Escherichia coli [9]) [mm] | Inhibition (Bacillus subtilis [10]) [mm] | Inhibition (Bacillus subtilis [11]) [mm] | Inhibition (Bacillus subtilis [12]) [mm] | Inhibition (Klebsiella pneumoniae [13]) [mm] | Inhibition (Escherichia coli [14]) [mm] | Inhibition (Pseudomonas aeruginosa [15]) [mm] | Inhibition [16] [mm] | Inhibition [17] [mm] | Inhibition [18] [mm] | also measured
COc1ccc(Cl)cc1C(=O)NCN1CCOCC1 | 9.5 | 13.5 | 10.5 | 10.5 | 14.5 | 9.5 | 16.5 | 11 | 12.5 | 10.5 | 9 | 8.5 | 12.5 | 10.5 | 12 |  |  |  | 
COc1ccc(Cl)cc1C(=O)NCNc1ccc(S(=O)(=O)Nc2ncccn2)cc1 | 8 | 11.5 | 7.5 | 7.5 | 8.5 | 7.5 | 15 | 9.5 | 9.5 | 7.5 | 7 | 7 | 8 | 8.5 | 8.5 | 7 | 7.5 | 7 | 
Cc1cc(NS(=O)(=O)c2ccc(N)cc2)no1 [SULFAMETHOXAZOLE] | 18.5 | 20.5 | 8.5 |  | 11.5 |  | 21 | 19.5 |  | 20 | 18.5 | 15.5 | 9 | 20.5 |  | 8.5 | 12.5 | 9 | 
Nc1ccc(S(N)(=O)=O)cc1 [SULFANILAMIDE] | 16.5 | 22.5 |  | 15.5 |  | 13.5 | 25 | 20.5 | 20.5 | 13 | 11.5 | 10.5 |  | 18 | 17.5 | 7 | 7.5 | 7.5 | 
COc1ccc(Cl)cc1C(=O)NCN(CCO)CCO |  |  |  |  |  |  |  |  |  | 8.5 | 7.5 | 7 |  |  |  |  |  |  | Inhibition (Klebsiella pneumoniae [19]): 7 mm; Inhibition (Klebsiella pneumoniae [20]): 7.5 mm; Inhibition (Escherichia coli [21]): 7.5 mm; Inhibition (Klebsiella pneumoniae [22]): 7.5 mm; Inhibition (Escherichia coli [23]): 8.5 mm; Inhibition (Escherichia coli [24]): 7 mm
Nc1ccc(S(=O)(=O)Nc2ncccn2)cc1 [SULFADIAZINE] | 8.5 | 7.5 | 12.5 |  | 15 |  | 9.5 | 7 | 12.5 | 13.5 | 9.5 | 8.5 | 13.5 | 9.5 |  | 7 | 9 | 7.5 | 
COc1ccc(Cl)cc1C(=O)NCN(c1ccccc1)c1ccccc1 |  |  | 7 |  | 8 |  |  |  |  | 8 | 7.5 | 7.5 | 7 |  |  | 7.5 | 8.5 | 7.5 | 
CC(=O)[N-]S(=O)(=O)c1ccc(N)cc1.[Na+] |  | 21 |  |  |  |  | 24 | 19.5 |  | 15 | 10 | 9.5 |  |  |  |  |  |  | 
COc1ccc(Cl)cc1C(=O)NCN(C)C |  |  | 7 | 7.5 | 7.5 | 7 |  |  |  |  |  |  | 7.5 |  | 7.5 |  |  |  | 
COc1ccc(Cl)cc1C(=O)NCNc1ccc(S(=O)(=O)NN)cc1 |  | 8.5 | 7 | 8 | 9.5 | 7.5 | 11 | 7.5 |  | 11.5 | 7.5 | 7 | 7.5 |  | 8.5 | 7 | 8 | 7.5 | Inhibition (Escherichia coli [25]): 7.5 mm; Inhibition (Escherichia coli [26]): 8.5 mm; Inhibition (Escherichia coli [24]): 7 mm
COc1ccc(Cl)cc1C(=O)NCNc1ccc(S(=O)(=O)[N-]C(C)=O)cc1.[Na+] |  | 14.5 | 10 | 12.5 | 15.5 | 9.5 | 22 | 10.5 |  | 16.5 | 12.5 | 10.5 | 12.5 |  | 14.5 | 10.5 | 22 | 14.5 | Inhibition (Escherichia coli [21]): 10.5 mm; Inhibition (Escherichia coli [23]): 13 mm; Inhibition (Escherichia coli [24]): 9.5 mm
